Where “and” joins values, the source holds several entries; their conditions need not be identical. Equal values may be shown once.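 48-hour exposure; five concentrations; linearly interpolated endpoints. GI50 marks 50% less growth. TGI denotes the concentration required for complete inhibition of growth.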
Key:
Assay in all cases: NCI tumour cell line growth inhibition, 48 h
[1] = system: 786-0 renal
[2] = system: A498 renal
[3] = system: A549 NSCLC
[4] = system: CCRF-CEM leukemia
[5] = system: COLO 205 colon
[6] = system: DLD-1 colon
[7] = system: DMS 114 small cell lung
[8] = system: HCC-2998 colon
[9] = system: HCT-116 colon
[10] = system: HCT-15 colon
[11] = system: HL-60(TB) leukemia
[12] = system: HOP-18 NSCLC
[13] = system: HOP-62 NSCLC
[14] = system: HS 578T breast
[15] = system: HT29 colon
[16] = system: IGROV1 ovarian
[17] = system: K-562 leukemia
[18] = system: KM12 colon
[19] = system: KM20L2 colon
[20] = system: LOX IMVI melanoma
[21] = system: M14 melanoma
[22] = system: M19-MEL melanoma
[23] = system: MALME-3M melanoma
[24] = system: MCF7 breast
[25] = system: MOLT-4 leukemia
[26] = system: NCI-H226 lung
[27] = system: NCI-H23 lung
[28] = system: NCI-H460 lung
[29] = system: NCI/ADR-RES ovarian
[30] = system: OVCAR-3 ovarian
[31] = system: OVCAR-5 ovarian
[32] = system: OVCAR-8 ovarian
[33] = system: P388/ADR leukemia
[34] = system: PC-3 prostate
[35] = system: RPMI-8226 leukemia
[36] = system: RXF 393 renal
[37] = system: SF-268 CNS
[38] = system: SF-539 CNS
[39] = system: SK-MEL-2 melanoma
[40] = system: SK-MEL-28 melanoma
[41] = system: SK-MEL-5 melanoma
[42] = system: SK-OV-3 ovarian
[43] = system: SN12C renal
[44] = system: SNB-19 CNS
[45] = system: SNB-75 CNS
[46] = system: SNB-78 CNS
[47] = system: SW-620 colon
[48] = system: T-47D breast
[49] = system: TK-10 renal
[50] = system: U251 CNS
[51] = system: UACC-257 melanoma

`CCCCCCCCCCCC[C@@H](O)[C@H]1CC[C@H]([C@H](O)CCCC[C@H](O)CCCCC[C@@H](O)CC2=C[C@H](C)OC2=O)O1` was tested, and the TGI [1] was 6.42 µM and 8.45 µM, the GI50 [2] was 5.27 µM and the TGI [2] was 9.41 µM and 13.6 µM. For the same compound, the GI50 [3] was 1.71 µM, the TGI [3] was 8.37 µM and 11.3 µM and the GI50 [4] was 1.98 µM. The TGI [4] was 7.58 µM, the GI50 [5] was 3.47 µM and the TGI [5] was 3.52 µM. It also gave a TGI [6] of 11.5 µM, a TGI [7] of 0.371 µM and a TGI [8] of 10.6 µM. For the same compound, the GI50 [9] was 0.425 µM, the TGI [9] was 5.2 µM and 6.56 µM and the GI50 [10] was 2.83 µM. For the same compound, the TGI [10] was 5.8 µM and 9.73 µM, the GI50 [11] was 0.548 µM and < 0.0574 µM and the TGI [11] was 4.24 µM and 2.13 µM. The TGI [12] was 15.5 µM, the GI50 [13] was 3.98 µM and the TGI [13] was 5.41 µM and 10.6 µM. The GI50 [14] was 4.22 µM, the TGI [14] was 7.06 µM and 22.1 µM and the TGI [15] was 5.64 µM and 8.54 µM. The GI50 [16] was 3.58 µM, the TGI [16] was 6.05 µM and 8.67 µM and the GI50 [17] was 0.302 µM. For the same compound, the TGI [17] was 7.06 µM, the GI50 [18] was 1.98 µM and the TGI [18] was 5.17 µM and 12.3 µM. For the same compound, the TGI [19] was 8.96 µM, the GI50 [20] was 0.809 µM and the TGI [20] was 4.92 µM and 4.19 µM. For the same compound, the TGI [21] was 5.25 µM and 10.4 µM, the TGI [22] was 5.71 µM and the GI50 [23] was 3.49 µM. The TGI [23] was 8.59 µM, the TGI [24] was 5.13 µM and 6.79 µM and the GI50 [25] was 1.74 µM and 0.891 µM. For the same compound, the TGI [25] was 4.06 µM, the GI50 [26] was 1.53 µM and the TGI [26] was 3.54 µM and 18.2 µM. For the same compound, the GI50 [27] was < 0.051 µM, the TGI [27] was 5.8 µM and 10.2 µM and the GI50 [28] was 2.4 µM. The TGI [28] was 5.16 µM and 11.7 µM, the TGI [29] was 5.42 µM and 11.2 µM and the GI50 [30] was 1.41 µM and 1.56 µM. For the same compound, the TGI [30] was 2.71 µM and 4.05 µM, the GI50 [31] was 1.59 µM and 5.77 µM and the TGI [31] was 3.05 µM and 17.9 µM. The GI50 [32] was 3.09 µM, the TGI [32] was 5.8 µM and 20.3 µM and the TGI [33] was 7.53 µM. The GI50 [34] was 2.43 µM, the TGI [34] was 5.16 µM and 12.3 µM and the GI50 [35] was 1.56 µM and 0.888 µM. For the same compound, the TGI [35] was 7.92 µM and 7.46 µM, the TGI [36] was 8.02 µM and the GI50 [37] was 2.38 µM. The TGI [37] was 6.01 µM and 11.2 µM, the GI50 [38] was 4.18 µM and the TGI [38] was 5.59 µM and 11.2 µM. For the same compound, the GI50 [39] was 1.3 µM, the TGI [39] was 2.6 µM and 1.68 µM and the GI50 [40] was 3.77 µM. For the same compound, the TGI [40] was 6.19 µM and 9.93 µM, the GI50 [41] was 0.275 µM and the TGI [41] was 7.16 µM and 2.21 µM. The TGI [42] was 11.4 µM, the TGI [43] was 7.66 µM and 15.6 µM and the GI50 [44] was 2.32 µM. The TGI [44] was 5.45 µM and 11.4 µM, the GI50 [45] was 4.02 µM and the TGI [45] was 7.77 µM and 10.3 µM. The TGI [46] was 15.2 µM, the TGI [47] was 6.58 µM and 12.9 µM and the GI50 [48] was 1.74 µM. For the same compound, the TGI [48] was 14.1 µM, the GI50 [49] was 3.94 µM and the TGI [49] was 6.59 µM and 15.3 µM. For the same compound, the GI50 [50] was 3.31 µM, the TGI [50] was 11.6 µM and the GI50 [51] was 0.0724 µM. The TGI [51] was 5.68 µM and 3.36 µM.

From PubChem BioAssay (NCI)
